This note sets out measurements from patent publication US9681658B2, “Penetrants for agrochemical formulations” (CRODA INTERNATIONAL PLC, priority 2012, dated 2017).

The structures appear in SMILES notation.

This assay has as its system Isolated cuticles from apple leaves (Malus domestica cv. 'Golden Delicious'). The assay can be described thus: Leaf penetration (Franz cell diffusion of Imidacloprid through isolated cuticles). The assay is classed as in vitro ADME. The note with it: active alone without penetrant. The protocol:
The following test method was used to assess leaf penetration properties of the synthesised ethoxylated polyol alkoxylates P1 to P18.
Franz cells were set up containing: • Receptor solution: 10 mM sodium phosphate buffer pH 6.0 containing 0.1 mM sodium azide • Donor solution: unformulated pesticide containing 0.5 g/l of Imidacloprid (N-[1-[(6-Chloro-3-pyridyl)methyl]-4,5-dihydroimidazol-2-yl]nitramide) and 2.5 g/l of penetrant, in 5 mM lactic acid (pre-buffered with KOH), preserved with 0.5 mM sodium azide, (+/−0.25% w/v), i.e. 2.5 g/l donor).
The Franz cell experiments were used for diffusion experiments. Isolated cuticles from apple leaves (Malus domestica cv. ‘Golden Delicious’) were prepared based on the method detailed in US 2009/0247597. The donor compartment was removed to aid deposit formation. Experiments were performed at a controlled temperature of 20° C., and a controlled relative humidity of 58%. A calibration was carried out (0-100% penetration) obtaining the concentration of Imidacloprid in the receiver solution removed from the Franz Cell.
HPLC-UV was used to assay imidacloprid concentration using an Agilent 1260 Quaternary LC system. Each penetrant was tested for leaf penetration properties, with a total of 18 Franz cells used for percentage penetration determination. A calibration was carried out before each set of samples was analysed. […]

On to `O=[N+]([O-])NC1=NCCN1Cc1ccc(Cl)nc1` [Imidacloprid, N-[1-[(6-Chloro-3-pyridyl)methyl]-4,5-dihydroimidazol-2-yl]nitramide], for which the “% penetration after 72 hours” value turned out to be 1.7%.
